By inhibition is commonly meant the percentage by which the read-out fell short of the control. High values mean a strong effect, low ones a weak effect.

The record followed here is ChEMBL document CHEMBL3627643, “Synthesis of stereochemically diverse cyclic analogs of tubulysins” (Bioorg Med Chem, 2015).

For this assay, the target named is Tubulin (Sus scrofa) (UniProt P02554+P02550). The assay is described as follows: Inhibition of pig tubulin polymerization at 5 uM incubated for 20 mins at 37 degC by fluorescence based tubulin polymerization inhibition assay. It counts as protein assay.
Chain of Tubulin (Sus scrofa) (P02550 whole entry, looked up): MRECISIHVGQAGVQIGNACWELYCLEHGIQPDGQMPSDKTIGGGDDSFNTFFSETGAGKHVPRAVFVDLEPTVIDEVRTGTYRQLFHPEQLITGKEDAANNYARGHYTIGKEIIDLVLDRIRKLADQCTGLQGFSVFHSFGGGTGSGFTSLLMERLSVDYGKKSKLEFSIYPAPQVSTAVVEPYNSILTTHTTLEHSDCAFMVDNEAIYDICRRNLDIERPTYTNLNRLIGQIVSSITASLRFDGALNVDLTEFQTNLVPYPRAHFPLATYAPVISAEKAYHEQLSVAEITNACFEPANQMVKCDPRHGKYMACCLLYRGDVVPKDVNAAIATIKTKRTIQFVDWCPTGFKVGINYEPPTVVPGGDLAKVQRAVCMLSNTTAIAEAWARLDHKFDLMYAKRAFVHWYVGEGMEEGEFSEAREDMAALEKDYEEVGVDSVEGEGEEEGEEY
Chain of Tubulin (Sus scrofa) (P02554 whole entry, looked up): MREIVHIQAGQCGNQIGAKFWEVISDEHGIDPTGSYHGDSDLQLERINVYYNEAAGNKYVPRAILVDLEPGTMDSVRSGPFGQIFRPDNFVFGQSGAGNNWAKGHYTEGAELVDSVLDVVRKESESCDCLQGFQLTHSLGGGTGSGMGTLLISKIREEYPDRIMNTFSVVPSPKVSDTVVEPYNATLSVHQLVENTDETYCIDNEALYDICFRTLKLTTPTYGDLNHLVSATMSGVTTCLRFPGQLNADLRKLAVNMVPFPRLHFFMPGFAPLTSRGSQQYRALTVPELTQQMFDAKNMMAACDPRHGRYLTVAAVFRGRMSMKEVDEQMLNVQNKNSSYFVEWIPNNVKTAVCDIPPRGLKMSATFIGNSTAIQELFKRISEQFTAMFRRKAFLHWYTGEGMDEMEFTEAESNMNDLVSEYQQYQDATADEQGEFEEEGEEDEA

For the compound `CC[C@H](C)[C@H](NC(=O)[C@H]1CCCCN1C)C(=O)N[C@@H]1CCO[C@H](c2nc(C(=O)NC(C)C)cs2)C1`, the inhibition came out at 1.45%. In turn, `CC[C@H](C)[C@@H](C(=O)N[C@H]1CCO[C@@H](c2nc(C(=O)NCCc3ccccc3)cs2)C1)N(C)C` returned an inhibition of 15.8%. Take `CC[C@H](C)[C@H](NC(=O)[C@H]1CCCCN1C)C(=O)N(C)[C@H]1CCO[C@@H](c2nc(C(=O)NCCc3ccccc3)cs2)C1`: the inhibition came to 5.87%.

In turn, `CC[C@H](C)[C@H](NC(=O)CN(C)C)C(=O)N[C@H]1CCO[C@@H](c2nc(C(=O)NCCc3ccccc3)cs2)C1` displayed an inhibition of 19.9%. With `CC[C@@H](C)[C@H](NC(=O)[C@H]1CCCCN1C)C(=O)N(COC(=O)CC(C)C)[C@H](C[C@@H](OC(C)=O)c1nc(C(=O)N[C@@H](Cc2ccc(O)cc2)C[C@H](C)C(=O)O)cs1)C(C)C`, the inhibition turned out to be 72.6%. As to `CC[C@H](C)[C@H](NC(=O)[C@H]1CCCCN1C)C(=O)N[C@H]1CCO[C@H](c2nc(C(=O)NC(C)C)cs2)C1`, the inhibition came to 8.73%. In turn, `CC[C@H](C)[C@H](NC(=O)[C@H]1CCCCN1C)C(=O)N(C)[C@H]1CCO[C@@H](c2nc(C(=O)NCCN3CCOCC3)cs2)C1` came in with an inhibition of 7.46%.

Regarding `CC[C@]1(O)C[C@@H]2CN(CCc3c([nH]c4ccccc34)[C@@](C(=O)OC)(c3cc4c(cc3OC)N(C)[C@H]3[C@@](O)(C(=O)OC)[C@H](OC(C)=O)[C@]5(CC)C=CCN6CC[C@]43[C@@H]65)C2)C1`, the inhibition is 73.9%. Then `CC[C@H](C)[C@H](NC(=O)[C@H]1CCCCN1C)C(=O)N(C)[C@H]1CCO[C@@H](c2nc(C(=O)NCCOC)cs2)C1`, with 10.6%; and `CC[C@H](C)[C@H](NC(=O)[C@H]1CCCCN1C)C(=O)N[C@@H]1CCO[C@@H](c2nc(C(=O)NCCc3ccccc3)cs2)C1`, with 2.23%. In the case of `CC[C@H](C)[C@H](NC(=O)[C@H]1CCCCN1C)C(=O)N[C@H]1CCO[C@@H](c2nc(C(=O)NCCc3ccccc3)cs2)C1` it was 1.62%; in that of `CC[C@H](C)[C@H](N)C(=O)N[C@H]1CCO[C@@H](c2nc(C(=O)NCCc3ccccc3)cs2)C1`, 8.52%. In the case of `CC[C@H](C)[C@H](NC(=O)[C@H]1CCCCN1C)C(=O)N(C)[C@H]1CCO[C@@H](c2nc(C(=O)NCc3ccccc3)cs2)C1` it was 10.2%.

The compound `CC[C@H](C)[C@H](N)C(=O)N[C@H]1CCO[C@@H](c2nc(C(=O)NC(C)C)cs2)C1` registered an inhibition of 10.6%. Then `CC[C@H](C)[C@H](NC(=O)[C@H]1CCCCN1C)C(=O)N(C)[C@H]1CCO[C@@H](c2nc(C(=O)NC(C)C)cs2)C1`, with 15.5%.

`CC[C@H](C)[C@H](NC(=O)[C@H]1CCCCN1C)C(=O)N[C@@H]1CCO[C@@H](c2nc(C(=O)NC(C)C)cs2)C1` showed an inhibition of 3.9%.

For the compound `CC[C@H](C)[C@H](NC(=O)CN(C)C)C(=O)N[C@H]1CCO[C@@H](c2nc(C(=O)NC(C)C)cs2)C1`, the inhibition came out at 12.9%. Compound `CC[C@H](C)[C@@H](C(=O)N[C@H]1CCO[C@@H](c2nc(C(=O)NC(C)C)cs2)C1)N(C)C` yielded an inhibition of 16.9%. In the case of `CC[C@H](C)[C@H](NC(=O)[C@H]1CCCCN1C)C(=O)N(C)[C@H]1CCO[C@@H](c2nc(C(=O)NCCc3ccccn3)cs2)C1` it was 20.2%; in that of `CC[C@H](C)[C@H](NC(=O)[C@H]1CCCCN1C)C(=O)N[C@H]1CCO[C@H](c2nc(C(=O)NCCc3ccccc3)cs2)C1`, 5.61%. Then `CC[C@H](C)[C@H](NC(=O)[C@H]1CCCCN1C)C(=O)N[C@H]1CCO[C@@H](c2nc(C(=O)NC(C)C)cs2)C1`, with 5.35%; and `CC[C@H](C)[C@H](NC(=O)[C@H]1CCCCN1C)C(=O)N[C@@H]1CCO[C@H](c2nc(C(=O)NCCc3ccccc3)cs2)C1`, with 3.76%.
